Values joined by “and” are separate entries in the source; they are usually repeats but may differ in a detail not shown here. Equal values may be shown once. “Also recorded” adds a separate entry of the source.
Key:
[1] = test system: DLBCL xenografts with MYC alterations; conditions: cited from earlier work
[2] = test system: R/R DLBCL/HGBL patients with MYC-altered disease; experiment: Phase 1 and phase 2 clinical studies of fimepinostat, response and survival outcomes; assay type: in vivo, human
Description: Included subjects were enrolled in either the dose escalation and expansion portion of the phase 1 study evaluating fimepinsotat with or without rituximab (part 1) or the phase 2 study with fimepinostat monotherapy.
For the phase 1/part 1 study, key inclusion criteria were ≥18 years of age with histopathologically confirmed diagnosis of DLBCL or transformed follicular lymphoma (tFL) refractory to or relapsed after at least 2 prior regimens, Eastern Cooperative Oncology Group (ECOG) performance status 0-2, measurable disease on baseline radiographic assessment and adequate hematologic and organ function. Key exclusion criteria were receipt of systemic anti-cancer therapy within 3 weeks of study entry, ongoing treatment with chronic immunosuppressive therapy, active CNS lymphoma and gastrointestinal conditions which may interfere with absorption of fimepinostat. For the phase 2 study, key inclusion criteria were ≥18 years of age with histopathologically confirmed diagnosis of DLBCL, HGBL or tFL refractory to or relapsed after 2-4 prior lines of therapy for the treatment of de novo DLBCL and ineligible for (or failed) autologous or allogeneic stem cell transplant (SCT), Eastern Cooperative Oncology Group (ECOG) performance status 0-1, measurable disease on baseline radiographic assessment, confirmed availability of viable tissue (defined as most recent available archival tumor tissue, or fresh tumor samples) for central laboratory FISH and IHC testing prior to study dosing and adequate hematologic and organ function. Key exclusion criteria were receipt of systemic anti-cancer therapy within 2 weeks of study entry or experimental therapy within 5 terminal half-lives (t1/2) or 4 weeks prior to enrollment, known primary mediastinal, ocular, epidural, testicular or breast lymphoma and current or planned glucocorticoid therapy with the exception of doses ≤10 mg/day prednisolone or equivalent.
(§1) Patients received fimepinostat capsules (Pharmatek Laboratories Inc., San Diego, CA, USA) orally, within 30 minutes of a meal, in 21-day cycles until disease progression was documented or other discontinuation criteria were met. In the phase 2 protocol, change in dose and/or schedule intensity of fimepinostat were allowed as per protocol due to toxicity. Safety and tolerability were assessed by the incidence and severity of adverse events as determined by NCI Common Terminology Criteria for Adverse Events (CTCAE v4.03) in both protocols.
(§2) The intention to-treat-population included al patients from both protocols who received at least one dose of fimepinostat. The evaluable population includes all patients who received at least one dose of study drug (phase 1) or one full cycle of treatment (phase 2) and completed at least one post-baseline disease assessment. Patients were re-staged according to the Revised Response Criteria for Malignant Lymphoma.^18
MYC-altered disease was defined as one or more of the following results from central testing of tumor samples: expression of MYC protein in ≥40% of lymphoma cells by immunohistochemical staining (IHC), MYC rearrangement by fluorescence in situ hybridization (FISH) or >2 copies of MYC in by FISH. IHC staining of MYC (rabbit clone Y69) and BCL2 (mouse clone 124) for patients enrolled in the phase 1 study (note MYC FISH was not centrally performed in this study) were performed by Mosaic Laboratories, LLC (Lake Forest, CA, USA). IHC staining of MYC (rabbit clone Y69) and BCL2 (mouse clone 124) as well as FISH with MYC (8q24) and BCL6 (3q27) break apart probes and BCL2 (t(14;18)) fusion probe for patients enrolled in the phase 2 study were performed by NeoGenomics Laboratories, Inc (Fort Myers, FL, USA), with positive cutoff values for MYC rearrangement (>10%), MYC copy number gain (>20%), BCL2 rearrangement (≥0.5%) and BCL6 rearrangement (>10%) as defined per laboratory standard. […]

[3] = Phase 1 and phase 2 clinical studies of fimepinostat, treatment-emergent adverse events (CTCAE v4.03); assay type: in vivo, human; conditions: for TEAE Abdominal pain, patients n (%) / TEAE Anemia, patients n (%) / TEAE Arthralgia, patients n (%) / TEAE Back pain, patients n (%) / TEAE Constipation, patients n (%) / TEAE Cough, patients n (%) / TEAE Decreased appetite, patients n (%) / TEAE Diarrhea, patients n (%) / TEAE Dizziness, patients n (%) / TEAE Dyspnea, patients n (%) / TEAE Edema peripheral, patients n (%) / TEAE Fatigue, patients n (%) / TEAE Hypokalemia, patients n (%) / TEAE Hypomagnesaemia, patients n (%) / TEAE Hypophosphatemia, patients n (%) / TEAE Lymphocyte count decreased, patients n (%) / TEAE Nausea, patients n (%) / TEAE Neutropenia, patients n (%) / TEAE Pain in extremity, patients n (%) / TEAE Pyrexia, patients n (%) / TEAE Thrombocytopenia, patients n (%) / TEAE Upper respiratory tract infection, patients n (%) / TEAE Vomiting, patients n (%) / TEAE Weight decreased, patients n (%) / TEAE White blood cell count decreased, patients n (%): intention to treat population (n = 58)
Experimental: as §1, §2
All patients received fimepinostat 60 mg by mouth 5 days on/2 days off as the starting dose with the exception of 1 patient enrolled in the phase 1 protocol who received 60 mg by mouth three times weekly. Three patients enrolled in the phase 1 protocol received concurrent rituximab.
Treatment-emergent adverse events (TEAE) occurring per patient by highest grade experienced with a frequency of ≥10% are listed in Table 5. The most common TEAE of any grade were diarrhea (72%), nausea (52%) and thrombocytopenia (38%). The most common grade 3 or 4 adverse events were […], neutropenia (15%), diarrhea (12%) and anemia (12%). Three patients experienced grade 5 TEAE: respiratory failure deemed unlikely related to treatment in 1 patient, sepsis deemed not related to treatment in 1 patient and tracheal obstruction deemed not related to treatment in 1 patient. Two non-evaluable patients discontinued treatment due to TEAE: grade 2 vomiting deemed related to treatment occurring in 1 patient and grade 4 hypercalcemia deemed unlikely related to treatment in 1 patient.

[4] = test system: DLBCL patients with MYC-altered disease; conditions: 11 evaluable DLBCL patients with MYC-altered disease, phase 1, cited from earlier work
[5] = test system: MYC-altered DLBCL/HGBL patients; conditions: Prospective phase 2; DHL; sample size 16; cited from earlier work
[6] = evaluable population (n = 43), 60 mg by mouth 5 days on/2 days off
[7] = evaluable population (n = 43), estimated
[8] = individual patients achieving partial or complete response (Subject ID 1-9)

## COc1ccc(-c2nc(N3CCOCC3)c3sc(CN(C)c4ncc(C(=O)NO)cn4)cc3n2)cn1 [fimepinostat, Fimepinostat]
[1]
  Preclinical activity compared to HDAC or PI3K inhibitor monotherapy: superior preclinical activity
[2]; 9 responding patients
  Responding patients who remained on treatment for over 2 years without disease progression, number: 4
[2]; evaluable population (n = 43)
  Overall response rate: 21%
  Overall response, number of patients: 9
  Partial response, number of patients: 3
  Progressive disease, number of patients: 26
[2]; [6]
  Complete response, % of patients: 14%
  Complete response, number of patients: 6
[2]; [7]
  Alive at 6 months: 54% (95% CI 37-68%)
  Progression free at 6 months: 18% (95% CI 8-31%)
[2]; [8]
  DOR (duration of response): 30.0 months and 24.4 months and 23.8 months and 1.0/1.0 months and 4.2 months and 4.1 months (2×) and 2.8 months and 40.5 months
  Status at end of study: Alive; also recorded: Deceased
  TTR (time to response): 2.7 months and 2.8 months (3×) and 1.0/1.0 months and 1.3 months (2×) and 4.0 months and 1.2 months
[2]; responding patients of evaluable population
  Median duration of response: Not yet reached (95% CI 1.4 months-
[3]; Grade 3
  TEAE Abdominal pain, patients n (%): 3 (5)
  TEAE Anemia, patients n (%): 7 (12)
  TEAE Arthralgia, patients n (%): 0 (0)
  TEAE Back pain, patients n (%): 1 (2)
  TEAE Constipation, patients n (%): 0 (0)
  TEAE Cough, patients n (%): 0 (0)
  TEAE Decreased appetite, patients n (%): 0 (0)
  TEAE Diarrhea, patients n (%): 7 (12)
  TEAE Dizziness, patients n (%): 0 (0)
  TEAE Dyspnea, patients n (%): 3 (5)
  TEAE Edema peripheral, patients n (%): 0 (0)
  TEAE Fatigue, patients n (%): 1 (2)
  TEAE Hypokalemia, patients n (%): 6 (10)
  TEAE Hypomagnesaemia, patients n (%): 0 (0)
  TEAE Hypophosphatemia, patients n (%): 4 (7)
  TEAE Lymphocyte count decreased, patients n (%): 3 (5)
  TEAE Nausea, patients n (%): 0 (0)
  TEAE Neutropenia, patients n (%): 7 (12)
  TEAE Pain in extremity, patients n (%): 1 (2)
  TEAE Pyrexia, patients n (%): 1 (2)
  TEAE Thrombocytopenia, patients n (%): 11 (19)
  TEAE Upper respiratory tract infection, patients n (%): 0 (0)
  TEAE Vomiting, patients n (%): 1 (2)
  TEAE Weight decreased, patients n (%): 1 (2)
  TEAE White blood cell count decreased, patients n (%): 3 (5)
[3]; Grade 4
  TEAE Abdominal pain, patients n (%): 0 (0)
  TEAE Anemia, patients n (%): 0 (0)
  TEAE Arthralgia, patients n (%): 0 (0)
  TEAE Back pain, patients n (%): 0 (0)
  TEAE Constipation, patients n (%): 0 (0)
  TEAE Cough, patients n (%): 0 (0)
  TEAE Decreased appetite, patients n (%): 0 (0)
  TEAE Diarrhea, patients n (%): 0 (0)
  TEAE Dizziness, patients n (%): 0 (0)
  TEAE Dyspnea, patients n (%): 0 (0)
  TEAE Edema peripheral, patients n (%): 0 (0)
  TEAE Fatigue, patients n (%): 0 (0)
  TEAE Hypokalemia, patients n (%): 0 (0)
  TEAE Hypomagnesaemia, patients n (%): 0 (0)
  TEAE Hypophosphatemia, patients n (%): 0 (0)
  TEAE Lymphocyte count decreased, patients n (%): 0 (0)
  TEAE Nausea, patients n (%): 0 (0)
  TEAE Neutropenia, patients n (%): 2 (3)
  TEAE Pain in extremity, patients n (%): 0 (0)
  TEAE Pyrexia, patients n (%): 0 (0)
  TEAE Thrombocytopenia, patients n (%): 3 (5)
  TEAE Upper respiratory tract infection, patients n (%): 0 (0)
  TEAE Vomiting, patients n (%): 0 (0)
  TEAE Weight decreased, patients n (%): 0 (0)
  TEAE White blood cell count decreased, patients n (%): 1 (2)
[3]; Grades 1-2
  TEAE Abdominal pain, patients n (%): 6 (10)
  TEAE Anemia, patients n (%): 6 (10)
  TEAE Arthralgia, patients n (%): 7 (12)
  TEAE Back pain, patients n (%): 5 (9)
  TEAE Constipation, patients n (%): 14 (24)
  TEAE Cough, patients n (%): 9 (16)
  TEAE Decreased appetite, patients n (%): 18 (31)
  TEAE Diarrhea, patients n (%): 35 (60)
  TEAE Dizziness, patients n (%): 8 (14)
  TEAE Dyspnea, patients n (%): 6 (10)
  TEAE Edema peripheral, patients n (%): 6 (10)
  TEAE Fatigue, patients n (%): 18 (31)
  TEAE Hypokalemia, patients n (%): 7 (12)
  TEAE Hypomagnesaemia, patients n (%): 7 (12)
  TEAE Hypophosphatemia, patients n (%): 2 (3)
  TEAE Lymphocyte count decreased, patients n (%): 3 (5)
  TEAE Nausea, patients n (%): 30 (52)
  TEAE Neutropenia, patients n (%): 2 (3)
  TEAE Pain in extremity, patients n (%): 6 (10)
  TEAE Pyrexia, patients n (%): 9 (16)
  TEAE Thrombocytopenia, patients n (%): 8 (14)
  TEAE Upper respiratory tract infection, patients n (%): 6 (10)
  TEAE Vomiting, patients n (%): 15 (26)
  TEAE Weight decreased, patients n (%): 7 (12)
  TEAE White blood cell count decreased, patients n (%): 3 (5)
[3]; TEAE of any grade
  Diarrhea, frequency: 72%
  Nausea, frequency: 52%
  Thrombocytopenia, frequency: 38%
[3]; Total
  TEAE Abdominal pain, patients n (%): 9 (16)
  TEAE Anemia, patients n (%): 13 (22)
  TEAE Arthralgia, patients n (%): 7 (12)
  TEAE Back pain, patients n (%): 6 (10)
  TEAE Constipation, patients n (%): 14 (24)
  TEAE Cough, patients n (%): 9 (16)
  TEAE Decreased appetite, patients n (%): 18 (31)
  TEAE Diarrhea, patients n (%): 42 (72)
  TEAE Dizziness, patients n (%): 8 (14)
  TEAE Dyspnea, patients n (%): 9 (16)
  TEAE Edema peripheral, patients n (%): 6 (10)
  TEAE Fatigue, patients n (%): 19 (33)
  TEAE Hypokalemia, patients n (%): 13 (22)
  TEAE Hypomagnesaemia, patients n (%): 7 (12)
  TEAE Hypophosphatemia, patients n (%): 6 (10)
  TEAE Lymphocyte count decreased, patients n (%): 6 (10)
  TEAE Nausea, patients n (%): 30 (52)
  TEAE Neutropenia, patients n (%): 11 (19)
  TEAE Pain in extremity, patients n (%): 7 (12)
  TEAE Pyrexia, patients n (%): 10 (17)
  TEAE Thrombocytopenia, patients n (%): 22 (38)
  TEAE Upper respiratory tract infection, patients n (%): 6 (10)
  TEAE Vomiting, patients n (%): 16 (28)
  TEAE Weight decreased, patients n (%): 8 (14)
  TEAE White blood cell count decreased, patients n (%): 7 (12)
[3]; grade 2 vomiting (related), grade 4 hypercalcemia (unlikely related)
  Non-evaluable patients who discontinued treatment due to TEAE, number: Two
[3]; grade 3 or 4
  Anemia, frequency: 12%
  Diarrhea, frequency: 12%
  Most common grade 3 or 4 adverse event (event name not given), frequency: 24%
  Neutropenia, frequency: 15%
[3]; respiratory failure, sepsis, tracheal obstruction, unlikely or not related to treatment
  Patients who experienced grade 5 TEAE, number: Three
[4]; central or local testing
  Overall response rate: 64%
[4]
  Estimated duration of response: 13.6 month

## Tisagenlecleucel
[5]
  CRR: 25%
  ORR: 50%/

Source: US20240044899A1, “BIOMARKERS FOR FIMEPINOSTAT THERAPY” (Curis, Inc, priority 2021, published 2024)
